Laboratory results reported in US20260209214A1, “LSD1 MODULATORS” (RECURSION PHARMACEUTICALS, INC., priority 2022, published 2026).

Each compound was assayed against Recombinant human LSD1 (Homo sapiens, UniProt O60341) (assay: LSD1 inhibition assay (HTRF LSD1 Histone H3K4 mono-demethylation assay, me1->me0)). Details: 20 nM recombinant human LSD1, 95 nM H3K4(me1) biotinylated peptide, 15 min preincubation, 60 min at 25° C., read-out: LSD1 inhibition IC50 (nM range).
Assay type: biochemical
Method in brief: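 HTRF demethylation (me1->me0) read-out: streptavidin-XL665 and anti-H3K4me0 cryptate added after reaction, ratio measured after 90 min dark. Reaction: 95 nM H3K4me1 biotin-peptide, 20 nM LSD1 (15-min compound pre-incubation), 60 min, 25 °C, buffer pH 8.5 plus FAD and DTT; 4-parameter logistic IC50.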

IC50	Structure (SMILES)
10 to 25 nM	N#Cc1ccc(-c2cccc(CC3CNCCO3)c2C2=CCOC2)cc1F (stereo not shown) [Example 10, 2′-(2,5-dihydrofuran-3-yl)-3-fluoro-3′-[(morpholin-2-yl)methyl]-[1,1′-biphenyl]-4-carbonitrile]
25 to 100 nM	CC1(O)CCN(c2ccc(CC3CNCCO3)cc2-c2ccc(C#N)c(F)c2)CC1 (stereo not shown) [Example 138, 3-fluoro-2′-(4-hydroxy-4-methylpiperidin-1-yl)-5′-[(morpholin-2-yl)methyl]-[1,1′-biphenyl]-4-carbonitrile]
> 1000 nM	COc1cnc(-c2ccc(CC3CNCCO3)cc2-c2ccc(C#N)c(F)c2)cn1 (stereo not shown) [Example 132, 3-fluoro-2′-(5-methoxypyrazin-2-yl)-5′-[(morpholin-2-yl)methyl]-[1,1′-biphenyl]-4-carbonitrile]
25 to 100 nM	COCCOc1ccc(-c2ccc(CC3CNCCO3)cc2-c2ccc(C#N)c(F)c2)cc1 (stereo not shown) [Example 94, 3-fluoro-2′-[4-(2-methoxyethoxy)phenyl]-5′-[(morpholin-2-yl)methyl]-[1,1′-biphenyl]-4-carbonitrile]
100 to 1000 nM	COc1ccc(-c2ccc(CC3CNCCO3)cc2-c2ccc(C#N)c(F)c2)cn1 (stereo not shown) [Example 80, 3-fluoro-2′-(6-methoxypyridin-3-yl)-5′-[(morpholin-2-yl)methyl]-[1,1′-biphenyl]-4-carbonitrile]
100 to 1000 nM	N#Cc1ccc(-c2cccc(CC3CNCCO3)c2C2CC2)cc1F (stereo not shown) [Example 42, 2′-cyclopropyl-3-fluoro-3′-[(morpholin-2-yl)methyl]-[1,1′-biphenyl]-4-carbonitrile]
100 to 1000 nM	N#Cc1ccc(-c2cc(CC3CNCCO3)ccc2-c2ccc(OCC3CC3)nc2)cc1F (stereo not shown) [Example 96, 2′-[6-(cyclopropylmethoxy)pyridin-3-yl]-3-fluoro-5′-[(morpholin-2-yl)methyl]-[1,1′-biphenyl]-4-carbonitrile]
100 to 1000 nM	N#Cc1ccc(-c2cc(C[C@H]3CNCCO3)ccc2N2CCC2)cc1F (single isomer, unassigned) [Example 54]

More lines, now with the values behind:

Structure (SMILES)	IC50
CC1CC1c1c(CN2[C@@H]3CC[C@H]2[C@@H](N)C3)cccc1-c1ccc(C#N)c(F)c1 (mixture of isomers) [Example 247, 3'-{[(1S,2S,4R)-2-amino-7-azabicyclo[2.2.1]heptan-7-yl]methyl}-3-fluoro-2'-(2-methylcyclopropyl)-[1,1'-biphenyl]-4-carbonitrile]	25 to 100 nM
N#Cc1ccc(-c2cccc(C[C@H]3CNCCO3)c2-c2cncs2)cc1F (single isomer, unassigned) [Example 30]	10 to 25 nM
Cc1ncsc1-c1c(CC2CNCCO2)cccc1-c1ccc(C#N)c(F)c1 (stereo not shown) [Example 24, 3-fluoro-2′-(4-methyl-1,3-thiazol-5-yl)-3′-[(morpholin-2-yl)methyl]-[1,1′-biphenyl]-4-carbonitrile]	10 to 25 nM
N#Cc1ccc(-c2ccc(F)c(CN3C[C@]4(N)CC[C@H]3C4)c2-c2ccns2)cc1F [Example 185, 3'-{[(1S,4S)-4-amino-2-azabicyclo[2.2.1]heptan-2-yl]methyl}-3,4'-difluoro-2'-(1,2-thiazol-5-yl)-[1,1'-biphenyl]-4-carbonitrile]	< 10 nM
N#Cc1ccc(-c2cccc(CC3CNCCO3)c2-c2cccnc2)cc1F (stereo not shown) [Example 32, 3-fluoro-3′-[(morpholin-2-yl)methyl]-2′-(pyridin-3-yl)-[1,1′-biphenyl]-4-carbonitrile]	25 to 100 nM
N#Cc1ccc(-c2cccc(CC3CNCCCO3)c2-c2ccns2)cc1F (stereo not shown) [Example 20, 3-fluoro-3′-[(1,4-oxazepan-2-yl)methyl]-2′-(1,2-thiazol-5-yl)-[1,1′-biphenyl]-4-carbonitrile]	< 10 nM
N#Cc1ccc(-c2cccc(CN3CCCCC34CCCNC4)c2Cl)cc1F (stereo not shown) [Example 281, 2'-chloro-3'-({1,8-diazaspiro[5.5]undecan-1-yl}methyl)-3-fluoro-[1,1'-biphenyl]-4-carbonitrile]	> 1000 nM
CC1(c2c(CN3[C@@H]4CC[C@H]3[C@@H](N)C4)cccc2-c2ccc(C#N)c(F)c2)CC1 (racemic) [Example 307, 3'-{[(1S,2S,4R)-2-amino-7-azabicyclo[2.2.1]heptan-7-yl]methyl}-3-fluoro-2'-(1-methylcyclopropyl)-[1,1'-biphenyl]-4-carbonitrile]	100 to 1000 nM
CN(C)C1CCN(c2cccc(-c3ccc(C#N)c(F)c3)c2-c2cnco2)CC1 [Example 95, 3'-[4-(dimethylamino)piperidin-1-yl]-3-fluoro-2'-(1,3-oxazol-5-yl)-[1,1'-biphenyl]-4-carbonitrile]	25 to 100 nM
N#Cc1ccc(-c2cccc(C[C@H]3CNCCO3)c2-c2ccno2)cc1F (single isomer, unassigned) [Example 17]	10 to 25 nM
N#Cc1ccc(-c2cc(CN3[C@@H]4CC[C@H]3[C@@H](N)C4)ccc2COC(F)F)cc1F (racemic) [Example 313, 5'-{[(1S,2S,4R)-2-amino-7-azabicyclo[2.2.1]heptan-7-yl]methyl}-2'-[(difluoromethoxy)methyl]-3-fluoro-[1,1'-biphenyl]-4-carbonitrile]	10 to 25 nM
CN[C@@H]1C[C@@H]2CC[C@H]1N2Cc1cccc(-c2ccc(C#N)c(F)c2)c1C1CC1 (single isomer, unassigned) [Example 178]	10 to 25 nM
CN[C@H]1C[C@H]2CC[C@@H]1N2Cc1cccc(-c2ccc(C#N)c(F)c2)c1C1CC1 (racemic) [Example 175]	10 to 25 nM
N#Cc1ccc(-c2cc(CN3[C@@H]4CC[C@H]3[C@@H](N)C4)ccc2OC(F)F)cc1F (racemic) [Example 310, 5'-{[(1S,2S,4R)-2-amino-7-azabicyclo[2.2.1]heptan-7-yl]methyl}-2'-(difluoromethoxy)-3-fluoro-[1,1'-biphenyl]-4-carbonitrile]	10 to 25 nM
CN[C@H]1CCN(Cc2cccc(-c3ccc(C#N)c(F)c3)c2C2CC2)C1 [Example 211, 2'-cyclopropyl-3-fluoro-3'-{[(3S)-3-(methylamino)pyrrolidin-1-yl]methyl}-[1,1'-biphenyl]-4-carbonitrile]	25 to 100 nM
N#Cc1ccc(-c2ccc(F)c(CC3CNCCO3)c2-c2cncs2)cc1F (stereo not shown) [Example 25, 3,4′-difluoro-3′-[(morpholin-2-yl)methyl]-2′-(1,3-thiazol-5-yl)-[1,1′-biphenyl]-4-carbonitrile]	10 to 25 nM
N#Cc1ccc(-c2cccc(CN3C[C@]4(N)CC[C@H]3C4)c2N2CCC2)cc1F [Example 172, N[C@@]12CC[C@@H](C1)N(Cc3cccc(c4ccc(C#N)c(F)c4)c3N5CCC5)C2]	10 to 25 nM
N#Cc1ccc(-c2cccc(CN3CCC4(CC3)CNC4)c2Cl)cc1F [Example 339, 2'-chloro-3'-({2,7-diazaspiro[3.5]nonan-7-yl}methyl)-3-fluoro-[1,1'-biphenyl]-4-carbonitrile]	25 to 100 nM
N#Cc1ccc(-c2cc(Cl)cc(CN3[C@@H]4CC[C@H]3[C@@H](N)C4)c2-c2cncs2)cc1F (racemic) [Example 268, 3'-{[(1S,2S,4R)-2-amino-7-azabicyclo[2.2.1]heptan-7-yl]methyl}-5'-chloro-3-fluoro-2'-(1,3-thiazol-5-yl)-[1,1'-biphenyl]-4-carbonitrile]	10 to 25 nM

Same assay, conditions: LSD1 inhibition IC50 (nM range), 20 nM recombinant human LSD1, 95 nM H3K4(me1) biotinylated peptide, 15 min preincubation, 60 min at 25° C.

Structure (SMILES)	IC50
CN1CC2(C1)CN(Cc1cccc(-c3ccc(C#N)c(F)c3)c1Cl)C2 [Example 214, CN1CC2(C1)CN(Cc3cccc(c3Cl)c4ccc(C#N)c(F)c4)C2]	> 1000 nM
